We go through four compounds from ChEMBL document CHEMBL1240428, “Conventional and microwave assisted synthesis of some new N-[(4-oxo-2-substituted aryl -1, 3-thiazolidine)-acetamidyl]-5-nitroindazoles and its antimicrobial activity” (2010).

The subject of test [1] is Escherichia coli. The test can be described thus: Antibacterial activity against Escherichia coli at 50 ug/mL. Type of test: functional. The settings on record: read-out: IZ.
Test [2] deals with Escherichia coli. The test can be described thus: Antibacterial activity against Escherichia coli at 100 ug/mL. It counts as functional. The settings on record: read-out: IZ.
In test [3] the test system is Bacillus subtilis. The test can be described thus: Antibacterial activity against Bacillus subtilis at 50 ug/mL. The settings on record: read-out: IZ. It counts as functional.
Test [4] relates to Bacillus subtilis. The test can be described thus: Antibacterial activity against Bacillus subtilis at 100 ug/mL. The settings on record: read-out: IZ. It counts as functional.
For test [5], the system named is Aspergillus flavus. The test can be described thus: Antifungal activity against Aspergillus flavus at 50 ug/mL. Type of test: functional. The settings on record: read-out: IZ.
The subject of test [6] is Aspergillus flavus. The test can be described thus: Antifungal activity against Aspergillus flavus at 100 ug/mL. It counts as functional. The settings on record: read-out: IZ.
Test [7] relates to Penicillium citrinum. The test can be described thus: Antifungal activity against Penicillium citrinum at 50 ug/mL. It counts as functional. The settings on record: read-out: IZ.
The subject of test [8] is Penicillium citrinum. The test can be described thus: Antifungal activity against Penicillium citrinum at 100 ug/mL. It counts as functional. The settings on record: read-out: IZ.
Test [9] has as its system Fusarium oxysporum. The test can be described thus: Antifungal activity against Fusarium oxysporum at 50 ug/mL. It counts as functional. The settings on record: read-out: IZ.
Test [10] concerns Fusarium oxysporum. The test can be described thus: Antifungal activity against Fusarium oxysporum at 100 ug/mL. It counts as functional. The settings on record: read-out: IZ.
Test [11] has as its system Escherichia coli. The test can be described thus: Antibacterial activity against Escherichia coli. It counts as functional.
For test [12], the system named is Bacillus subtilis. The test can be described thus: Antibacterial activity against Bacillus subtilis. Type of test: functional.
In test [13] the test system is Aspergillus flavus. The test can be described thus: Antifungal activity against Aspergillus flavus. Type of test: functional.
Test [14] deals with Penicillium citrinum. The test can be described thus: Antifungal activity against Penicillium citrinum. It counts as functional.
In test [15] the test system is Fusarium oxysporum. The test can be described thus: Antifungal activity against Fusarium oxysporum. Type of test: functional.
Test [16] has as its system Salmonella typhi. The test can be described thus: Antibacterial activity against Salmonella typhi.
The test system of test [17] is Salmonella typhi. The test can be described thus: Antibacterial activity against Salmonella typhi at 50 ug/mL. The settings on record: read-out: IZ.
Test [18] concerns Salmonella typhi. The test can be described thus: Antibacterial activity against Salmonella typhi at 100 ug/mL. The settings on record: read-out: IZ.

Values after ≈ are worked out from the molar mass of the structure shown.

As usually defined, the MIC is the lowest concentration found to suppress growth. Regarding `O=C(Cn1ncc2cc([N+](=O)[O-])ccc21)NN1C(=O)CSC1c1ccccc1Cl` (configuration not stated), the zone of inhibition at 50 µg/mL came to 21.4 mm in the test on Escherichia coli [1]; 18 mm with Bacillus subtilis [3]; 21.3 mm in the test with Aspergillus flavus [5]; 19.4 mm in the test on Penicillium citrinum [7]; 22 mm in the test on Fusarium oxysporum [9]; 19.2 mm in the test with Salmonella typhi [17]. In addition, the zone of inhibition at 100 µg/mL amounted to 24.5 mm with Escherichia coli [2]; 22.6 mm in the test with Bacillus subtilis [4]; 24 mm in the test on Aspergillus flavus [6]; 23.5 mm with Penicillium citrinum [8]; 25 mm in the test on Fusarium oxysporum [10]; 23 mm in the test with Salmonella typhi [18]. Besides, the MIC against Escherichia coli [11] stood at 13 µg/mL (≈ 30.1 µM); against Bacillus subtilis [12] it was 17 µg/mL (≈ 39.4 µM); in the test on Aspergillus flavus [13] it was 14 µg/mL (≈ 32.4 µM); with Penicillium citrinum [14], 17 µg/mL (≈ 39.4 µM); against Fusarium oxysporum [15] it was 11 µg/mL (≈ 25.5 µM); with Salmonella typhi [16], 15 µg/mL (≈ 34.7 µM).
Take `O=C(Cn1ncc2cc([N+](=O)[O-])ccc21)NN1C(=O)CSC1c1cccc([N+](=O)[O-])c1` (configuration not stated): the zone of inhibition at 50 µg/mL with Escherichia coli [1] amounted to 24.6 mm; with Bacillus subtilis [3], 21 mm; in the test with Aspergillus flavus [5] it was 24.7 mm; in the test on Penicillium citrinum [7], 22.3 mm; in the test with Fusarium oxysporum [9], 25.1 mm; with Salmonella typhi [17] it was 22 mm. Further, the zone of inhibition at 100 µg/mL in the test with Escherichia coli [2] was 28 mm; in the test with Bacillus subtilis [4], 26.1 mm; in the test on Aspergillus flavus [6], 27 mm; in the test with Penicillium citrinum [8] it was 26.5 mm; in the test on Fusarium oxysporum [10] it was 28.4 mm; in the test on Salmonella typhi [18], 25.8 mm. Further, the MIC against Escherichia coli [11] turned out to be 10 µg/mL (≈ 22.6 µM); against Bacillus subtilis [12], 15 µg/mL (≈ 33.9 µM); with Aspergillus flavus [13] it was 11 µg/mL (≈ 24.9 µM); against Penicillium citrinum [14], 14 µg/mL (≈ 31.6 µM); in the test with Fusarium oxysporum [15], 8 µg/mL (≈ 18.1 µM); in the test on Salmonella typhi [16], 12 µg/mL (≈ 27.1 µM).
For `O=C(Cn1ncc2cc([N+](=O)[O-])ccc21)NN1C(=O)CSC1c1ccccc1[N+](=O)[O-]` (configuration not stated), the zone of inhibition at 50 µg/mL is 23.5 mm in the test with Escherichia coli [1]; 20 mm in the test on Bacillus subtilis [3]; 23.6 mm in the test on Aspergillus flavus [5]; 21.4 mm in the test on Penicillium citrinum [7]; 24.2 mm in the test with Fusarium oxysporum [9]; 21.2 mm in the test with Salmonella typhi [17]. In addition, the zone of inhibition at 100 µg/mL stood at 26.9 mm in the test with Escherichia coli [2]; 25.5 mm in the test with Bacillus subtilis [4]; 26.1 mm in the test on Aspergillus flavus [6]; 25.6 mm with Penicillium citrinum [8]; 27 mm in the test with Fusarium oxysporum [10]; 25 mm with Salmonella typhi [18]. For the same compound, the MIC against Escherichia coli [11] is 11 µg/mL (≈ 24.9 µM); in the test on Bacillus subtilis [12], 15 µg/mL (≈ 33.9 µM); in the test with Aspergillus flavus [13], 11 µg/mL (≈ 24.9 µM); in the test with Penicillium citrinum [14] it was 15 µg/mL (≈ 33.9 µM); with Fusarium oxysporum [15], 9 µg/mL (≈ 20.3 µM); in the test with Salmonella typhi [16] it was 13 µg/mL (≈ 29.4 µM).
On to `CCOC(=O)Cn1ncc2cc([N+](=O)[O-])ccc21`, for which the zone of inhibition at 50 µg/mL in the test with Escherichia coli [1] was determined as 5 mm; in the test with Bacillus subtilis [3], 3 mm; in the test on Aspergillus flavus [5], 5.8 mm; in the test with Penicillium citrinum [7] it was 4 mm; with Fusarium oxysporum [9], 6.5 mm; in the test on Salmonella typhi [17] it was 4 mm. Moreover, the zone of inhibition at 100 µg/mL came to 8 mm in the test with Escherichia coli [2]; 5 mm with Bacillus subtilis [4]; 8 mm in the test with Aspergillus flavus [6]; 6 mm with Penicillium citrinum [8]; 9 mm in the test with Fusarium oxysporum [10]; 7 mm with Salmonella typhi [18]. The MIC against Escherichia coli [11] came to 35 µg/mL (≈ 140 µM); in the test with Bacillus subtilis [12], 45 µg/mL (≈ 181 µM); in the test on Aspergillus flavus [13], 34 µg/mL (≈ 136 µM); against Penicillium citrinum [14] it was 40 µg/mL (≈ 160 µM); against Fusarium oxysporum [15], 30 µg/mL (≈ 120 µM); in the test with Salmonella typhi [16] it was 38 µg/mL (≈ 152 µM).
